Values quoted from earlier work, collected in US20220249345A1, “PRODUCT FOR TREATING KERATINOUS FIBERS, CONTAINING SILANES OF SPECIFIC FORMULAE” (Henkel AG & Co. KGaA, priority 2019, published 2022).
Read-outs that look alike come from different tables or passages of the source.

Structure (SMILES) | solubility in water (at about 25° C.) | solubility in water (25° C.)
O=C([O-])C1=NN(c2ccc(S(=O)(=O)[O-])cc2)C(=O)C1N=Nc1ccc(S(=O)(=O)[O-])cc1.[Na+].[Na+].[Na+] (stereo not drawn) [Acid Yellow 23, trisodium salt of 4,5-dihydro-5-oxo-1-(4-sulfophenyl)-4-((4-sulfophenyl)azo)-1H-pyrazole-3-carboxylic acid] | highly soluble in water | 
Nc1cc(S(=O)(=O)[O-])cc2cc(S(=O)(=O)[O-])c(N=Nc3ccccc3)c(O)c12.[Na+].[Na+] [Acid Red 33, diantrium salt of 5-amino-4-hydroxy-3-(phenylazo)-naphthalene-2,7-disulphonate] |  | about 2.5 g/L
O=S(=O)([O-])c1ccc(N=Nc2c(O)ccc3ccccc23)cc1.[Na+] [Acid Orange 7, sodium salt of 4-[(2-hydroxy-1-naphthyl)azo]benzene sulphonate] |  | more than 7 g/L
